Source: patent publication US8802634B2, “CD40-L Inhibitory Peptides” (Phylogica Limited, priority 2008, dated 2014)

Assays:
[1] = molecular target: T1, CD40L (Homo sapiens, UniProt P29965); assay: Octet Red label-free association/dissociation analysis; type: binding; details: versus CD40L M1—206
T1 construct: measures of the “on” and “off” rates of the peptides relative to soluble CD40L
T1 sequence (P29965 113-261 limits assumed): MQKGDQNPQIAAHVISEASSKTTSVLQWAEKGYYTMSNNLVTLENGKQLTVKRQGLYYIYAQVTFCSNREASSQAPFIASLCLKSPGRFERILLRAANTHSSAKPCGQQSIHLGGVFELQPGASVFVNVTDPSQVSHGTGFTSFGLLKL
Description: Label-free analyses of the associations and dissociations of base peptides and serine derivatives of base peptides with the CD40L target protein were performed using the Octet Red system (ForteBio, Inc., USA) according to the manufacturer's instructions. These analyses provide kinetic constants of CD40L binding activity, especially the association rate constant (Ka) and dissociation rate constant (Kd) of binding, i.e., measures of the “on” and “off” rates of the peptides relative to soluble CD40L.

[2] = test system: T cells from transgenic D011.10 mice; assay: Antigen-specific T-cell proliferation assay; type: cell-based; details: 10 μM or 20 μM peptide
Description: Briefly, pooled DLN (consisting parathymic and posterior mediastinal nodes) were collected from transgenic D011.10 mice engineered to express ovalbumin-specific T cell receptors (TCRs). Enriched T-cell suspensions were prepared and stimulated with 10 μg/ml ovalbumin in the presence or absence of 10 μM or 20 μM concentration of anti-CD40L peptidyl inhibitors. The peptides tested were PEGylated serine derivatives and/or chiral analogs of peptides CD40L M1—6, CD40L M1—9, CD40L M1—18, CD40L M1—30, CD40L M1—42, CD40L M1—50, CD40L M7—82 and CD40L M7—206. Cells were cultured for 24-72 hrs and then pulsed with [^3H]thymidine for another 24 hr to measure T-cell proliferation.

Sequence | fold higher affinity for CD40L than base monomeric peptide [1] | relative performance in T-cell proliferation assay [2]
PFTWRPTIFWIIQLIVYMRHFGGGGSRSELLRENICRYVSLFDHPLQRNTPLDELRFVIFDTETSGFDLVKDRILSIR [CD40L D1_0014] | 6 fold | 
AQWWHHRFSFLGAIQFFERGAAD [CD40L M1_30rd] |  | best-performing
SKVRMQFDIINFPVNVGFLVFSH [CD40L M1_42rd] |  | best-performing
